Results taken from US20190169574A1, “IN VITRO PRODUCTION OF PANCREATIC BETA CELLS” (NESTEC S.A., priority 2016, published 2019).

Columns and labels:
[1] = tested on: PE cells; test: Dose response test: toxicity and morphology of PE cell aggregates in culture with increasing doses of Isx9; type: cell-based; details: FIG. 1
Procedure: FIG. 1: Morphological analysis of PE cells in culture with increasing doses of Isx9. PE cells were cultured in suspension without Isx9 (DMSO control carrier), and with increasing concentrations of Isx9 (6 μM, 12 μM, 24 μM, 48 μM and 60 μM) for 4 days and 8 days. 5× and 10× magnification pictures have been collected for each condition and time point.
Dose response tests have been performed to determine toxicity of Isx9 and the optimal concentration of Isx9 to be tested for beta cell differentiation in vitro. High concentrations of Isx9 (from 24 μM up to 60 μM) appears to be toxic as the aggregates of PE cells become cystic after 8 days in culture as shown in FIG. 1. In contrast, the morphology of the aggregates of PE cells is unchanged as compared to the control DMSO condition when using 6 and 12 μM of Isx9. In order to maintain physiological condition, a concentration of 6 μM of Isx9 has been used for the entire protocol. Exposure of maturing beta cells to Isx9 for 13 days is increasing the glucose-stimulated insulin secretion of the cells as compared to the control DMSO condition (FIG. 2). This effect is correlated with the duration of exposure to Isx9 at 6 uM. […] Isx9 induces an increase in RNA expression levels of endocrine markers such as Ngn3, but also beta cell markers as NeuroD1 and Nkx2.2.

[2] = tested on: iPSC-derived maturing beta cells; test: In vitro glucose-stimulated insulin secretion test; type: cell-based
Procedure: FIG. 2: Exposure of PE cells to Isx9 induces glucose response properties to the cells. A: Scheme of the protocol setup. Maturing beta cells have been exposed to DMSO or Isx9 (6 μM) for 13 days, 7 days or 2 days during the maturation step. B: In vitro glucose-stimulated Insulin secretion test have been performed to measure secretion of Insulin in each condition (No Isx9, 13 days Isx9, 7 days Isx9 or 2 days Isx9) induced by low glucose concentration (2 mM) or high glucose concentration (20 mM). The stimulation index of Insulin secretion is determined between the 2 concentrations of glucose on the y axis. FIG. 4: Exposure of PE cells to Isx9 in two-steps increases glucose response properties to the cells. A: Scheme of the protocol setup. In a first step, PE cells have been exposed to DMSO (condition 1) or Isx9 (6 μM) for 2-6 days (condition 2). In a second step, maturing beta cells have been exposed to DMSO (condition 3) or Isx9 (6 uM) for 10 days (condition 4). B: In vitro glucose-stimulated Insulin secretion test have been performed to measure secretion of Insulin in each condition, induced by low glucose concentration (2 mM) or high glucose concentration (20 mM). The stimulation index of Insulin secretion is determined between the 2 concentrations of glucose on they axis. In order from left to right: NKX6.1, Pdx1, NGN3, NKX2-2, NeuroD1. Frozen PE cells were thawed and cultured for 1 day in I medium containing 10 U/mL DNase I in ULA 6WP flat-bottomed plates. The PE cells were subsequently transferred to S3 BASE medium (MCDB131, 8 mM D-glucose, 1.23 g/L NaHCO3, 2% FFA BSA, 1:200 ITX-X, 2 mM glutamax, 100×PS and 0.25 mM vitamin C) containing 50 ng/mL KGF, 0.25 μM Sant1, 100 nM RA and 10 μM Y and cultured for a further 2 days. The resulting cells were then cultured for 4 days using an air-liquid interface culture protocol in Transwell plates. […]

[3] = tested on: PE cells / in vitro maturing beta cells; test: RNA / gene expression levels of endocrine progenitor and beta cell markers; type: cell-based
Procedure: FIG. 3: Early exposure of PE cells to Isx9 increases gene expression levels of endocrine progenitors as well as mature beta cell markers. A: Scheme of the protocol setup. B: Early exposure of PE cells to Isx9 (6 μM) for 2-6 days (condition 3) increases RNA expression levels of Ngn3, Nkx2.2 and NeuroD1 at D13 of differentiation, as compared to DMSO exposure (condition 1). The increase of Nkx2.2 RNA expression levels is maintained at D23 of differentiation when in vitro maturing beta cells are exposed to Isx9 (6 uM) in a two-step protocol (condition 4). Controls are represented by primary human islets. First bar of each pair is 2 mM and second bar is at 20 mM. Frozen PE cells were thawed and cultured for 1 day in I medium containing 10 U/mL DNase I in ULA 6WP flat-bottomed plates. The PE cells were subsequently transferred to S3 BASE medium (MCDB131, 8 mM D-glucose, 1.23 g/L NaHCO3, 2% FFA BSA, 1:200 ITX-X, 2 mM glutamax, 100×PS and 0.25 mM vitamin C) containing 50 ng/mL KGF, 0.25 μM Sant1, 100 nM RA and 10 μM Y and cultured for a further 2 days. The resulting cells were then cultured for 4 days using an air-liquid interface culture protocol in Transwell plates. The culture was carried out in S5 BASE medium (MCDB131, 20 mM D-glucose, 1.754 g/L NaHCO3, 2% FFA BSA, 1:200 ITX-X, 2 mM glutamax, 100×PS, 0.25 mM vitamin C and […] heparin) containing 100 nM RA, 1 μM XXI, 0.25 μM Sant1, 10 μM Alk5i II, 1 μM T3, 20 ng/mL beta-cellulin, 10 μM Y and 6 μM isoxazole 9 (ISX-9). Subsequently, the medium was exchanged for S5 BASE medium containing 25 nM RA, 1 μM XXI, 10 μM Alk5i II, 1 μM T3, 20 ng/mL beta-cellulin and 10 μM Y and the cells were cultured for a further 3 days. ISX-9 was not present in this medium. Finally, the medium was exchanged for S6 BASE medium (CMRL 1066, 10% FBS and 100×PS) containing 10 μM Alk5i II, 1 μM T3 and 10 μM Y and the cells were cultured for a further 15 days. ISX-9 was added to this medium at a concentration of 6 μM for the final 14 days of culture (i.e. the first day of culture in this step was carried out in the absence of ISX-9).

[4] = tested on: MAFA; test: MAFA detection by immunohistochemistry; type: cell-based; details: as early as at D9 of differentiation; FIG. 7
Description: (§1) Moreover, culturing the PE cells in suspension or in transwell culture systems in presence of Isx9 is showing the same effect of improved glucose-dependent insulin response as shown in FIG. 5 and FIG. 6. […] Both markers are critical for mediating the response of insulin secretion mediated by glucose. The expression of MAFA can also be unprecedently detected by immunohistochemistry as early as at D9 of differentiation as shown in FIG. 7.

[5] = tested on: maturing beta cells; test: Analysis of the cell composition of the maturing beta cells (insulin positive cells); type: cell-based; details: Isx9 added
Description: FIG. 7: FACS sorting of cells
as §1

[6] = tested on: human cadaveric islets; details: islets that produced low levels of insulin due to prolonged culture; cited from earlier work
[7] = tested on: adult neural stem cell; details: in vitro and in vivo; cited from earlier work
[8] = Isx9 6 μM early exposure of PE cells for 2-6 days vs DMSO, D13 of differentiation, FIG. 3

## O=C(NC1CC1)c1cc(-c2cccs2)on1 [Isx9, Isoxazole 9]
[1]; 6 and 12 μM of Isx9
  morphology of the aggregates of PE cells as compared to the control DMSO condition: unchanged
[1]; high concentrations, from 24 μM up to 60 μM, after 8 days in culture
  toxicity (aggregates of PE cells become cystic): toxic
[2]; Isx9 6 μM, first step 2-6 days at PE stage, second step 10 days, FIG. 3 and FIG. 4
  effect of Isx9 on glucose response when added in a first step at the PE cell stage (two-step protocol): reinforced
[2]; PE cells cultured in suspension or in transwell culture systems in presence of Isx9, FIG. 5 and FIG. 6
  glucose-dependent insulin response: improved
[2]; maturing beta cells exposed to Isx9 6 μM for 13 days, 2 mM vs 20 mM glucose, effect correlated with duration of exposure, FIG. 2
  glucose-stimulated insulin secretion of the cells as compared to the control DMSO condition: increasing
[3]; [8]
  RNA expression level of NeuroD1: increases
  RNA expression level of Ngn3: increases
  RNA expression level of Nkx2.2: increases
[3]; Isx9 6 uM two-step protocol (condition 4), D23 of differentiation, FIG. 3
  increase of Nkx2.2 RNA expression levels at D23: maintained
[3]; in presence of Isx9
  MAFA gene expression level: increase
  PCSK1 gene expression level: increase
[4]
  expression of MAFA by immunohistochemistry: detected
[5]
  number or quantity of insulin positive cells as compared to DMSO: does not receal an increase
[6]
  expression and secretion of insulin: increase
[7]
  adult neural stem cell differentiation: induce
